Data published in the NIST ThermoML archive (doi:10.1021/je500669y).
Numbers after ± are expanded uncertainties.

Assay: xn = mol fraction of the nth substance listed
Settings: Gas, isochoric method

F/C=C/C(F)(F)F [trans-1,3,3,3-tetrafluoropropene] + N#N
Settings | specific volume [m3/kg]
263.05 K, 383.1 kPa, x2 = 0.75 | 0.114 ± 0.01
263.16 K, 622.6 kPa, x2 = 0.746 | 0.069 ± 0.01
273.12 K, 398.4 kPa, x2 = 0.75 | 0.114 ± 0.01
273.13 K, 648.5 kPa, x2 = 0.746 | 0.069 ± 0.01
273.19 K, 464.3 kPa, x2 = 0.5 | 0.066 ± 0.01
283.07 K, 291.8 kPa, x2 = 0.495 | 0.11 ± 0.01
283.1 K, 413.5 kPa, x2 = 0.75 | 0.114 ± 0.01
283.1 K, 673.7 kPa, x2 = 0.746 | 0.069 ± 0.01
283.12 K, 485.7 kPa, x2 = 0.5 | 0.066 ± 0.01
293.08 K, 302.8 kPa, x2 = 0.495 | 0.11 ± 0.01
293.09 K, 699 kPa, x2 = 0.746 | 0.069 ± 0.01
293.11 K, 506.5 kPa, x2 = 0.5 | 0.066 ± 0.01
293.13 K, 428.7 kPa, x2 = 0.75 | 0.114 ± 0.01
303.05 K, 313.9 kPa, x2 = 0.495 | 0.11 ± 0.01
303.16 K, 525.9 kPa, x2 = 0.5 | 0.066 ± 0.01
303.17 K, 443.8 kPa, x2 = 0.75 | 0.114 ± 0.01
303.18 K, 196.3 kPa, x2 = 0.254 | 0.136 ± 0.01
303.19 K, 381.3 kPa, x2 = 0.25 | 0.069 ± 0.01
303.35 K, 724.8 kPa, x2 = 0.746 | 0.069 ± 0.01
313.14 K, 203.2 kPa, x2 = 0.254 | 0.136 ± 0.01
313.17 K, 396.1 kPa, x2 = 0.25 | 0.069 ± 0.01
313.17 K, 545.2 kPa, x2 = 0.5 | 0.066 ± 0.01
313.18 K, 324.5 kPa, x2 = 0.495 | 0.11 ± 0.01
313.18 K, 458.8 kPa, x2 = 0.75 | 0.114 ± 0.01
313.2 K, 749.1 kPa, x2 = 0.746 | 0.069 ± 0.01
323.13 K, 209.9 kPa, x2 = 0.254 | 0.136 ± 0.01
323.15 K, 410.2 kPa, x2 = 0.25 | 0.069 ± 0.01
323.16 K, 473.2 kPa, x2 = 0.75 | 0.114 ± 0.01
323.17 K, 335.3 kPa, x2 = 0.495 | 0.11 ± 0.01
323.17 K, 564 kPa, x2 = 0.5 | 0.066 ± 0.01
323.17 K, 773.9 kPa, x2 = 0.746 | 0.069 ± 0.01
333.16 K, 423.9 kPa, x2 = 0.25 | 0.069 ± 0.01
333.17 K, 582.8 kPa, x2 = 0.5 | 0.066 ± 0.01
333.17 K, 799.4 kPa, x2 = 0.746 | 0.069 ± 0.01
333.18 K, 346.1 kPa, x2 = 0.495 | 0.11 ± 0.01
333.19 K, 488.7 kPa, x2 = 0.75 | 0.114 ± 0.01
333.34 K, 216.7 kPa, x2 = 0.254 | 0.136 ± 0.01
343.11 K, 601.4 kPa, x2 = 0.5 | 0.066 ± 0.01
343.12 K, 223.3 kPa, x2 = 0.254 | 0.136 ± 0.01
343.12 K, 356.8 kPa, x2 = 0.495 | 0.11 ± 0.01
343.13 K, 823.9 kPa, x2 = 0.746 | 0.069 ± 0.01
343.14 K, 438.2 kPa, x2 = 0.25 | 0.069 ± 0.01
343.14 K, 503.4 kPa, x2 = 0.75 | 0.114 ± 0.01
353.05 K, 451.9 kPa, x2 = 0.25 | 0.069 ± 0.01
353.08 K, 229.5 kPa, x2 = 0.254 | 0.136 ± 0.01
353.1 K, 619.5 kPa, x2 = 0.5 | 0.066 ± 0.01
353.11 K, 367.5 kPa, x2 = 0.495 | 0.111 ± 0.01
353.13 K, 518.1 kPa, x2 = 0.75 | 0.114 ± 0.01
353.13 K, 848.5 kPa, x2 = 0.746 | 0.069 ± 0.01
363.06 K, 236.3 kPa, x2 = 0.254 | 0.136 ± 0.01
363.1 K, 378.2 kPa, x2 = 0.495 | 0.111 ± 0.01
363.1 K, 465.8 kPa, x2 = 0.25 | 0.069 ± 0.01
363.1 K, 872.9 kPa, x2 = 0.746 | 0.069 ± 0.01
363.12 K, 638.7 kPa, x2 = 0.5 | 0.066 ± 0.01
363.25 K, 533.3 kPa, x2 = 0.75 | 0.114 ± 0.01
373 K, 242.6 kPa, x2 = 0.254 | 0.136 ± 0.01
373.07 K, 547.3 kPa, x2 = 0.75 | 0.114 ± 0.01
373.09 K, 389.2 kPa, x2 = 0.495 | 0.111 ± 0.01
373.09 K, 657 kPa, x2 = 0.5 | 0.066 ± 0.01
373.1 K, 479.5 kPa, x2 = 0.25 | 0.069 ± 0.01
373.16 K, 897.7 kPa, x2 = 0.746 | 0.069 ± 0.01
383.05 K, 675.5 kPa, x2 = 0.5 | 0.066 ± 0.01
383.06 K, 494.4 kPa, x2 = 0.25 | 0.069 ± 0.01
383.08 K, 922.8 kPa, x2 = 0.746 | 0.069 ± 0.01
383.09 K, 399.9 kPa, x2 = 0.495 | 0.111 ± 0.01
383.09 K, 562.6 kPa, x2 = 0.75 | 0.114 ± 0.01
383.26 K, 249.6 kPa, x2 = 0.254 | 0.136 ± 0.01
393.05 K, 508.1 kPa, x2 = 0.25 | 0.069 ± 0.01
393.06 K, 577.5 kPa, x2 = 0.75 | 0.114 ± 0.01
393.06 K, 694 kPa, x2 = 0.5 | 0.066 ± 0.01
393.08 K, 410.6 kPa, x2 = 0.495 | 0.111 ± 0.01
393.13 K, 947.3 kPa, x2 = 0.746 | 0.069 ± 0.01
393.14 K, 256.3 kPa, x2 = 0.254 | 0.136 ± 0.01
402.99 K, 421.1 kPa, x2 = 0.495 | 0.111 ± 0.01
403.04 K, 521.2 kPa, x2 = 0.25 | 0.069 ± 0.01
403.04 K, 592.5 kPa, x2 = 0.75 | 0.114 ± 0.01
403.05 K, 712.5 kPa, x2 = 0.5 | 0.066 ± 0.01
403.1 K, 971.7 kPa, x2 = 0.746 | 0.069 ± 0.01
403.14 K, 262.9 kPa, x2 = 0.254 | 0.137 ± 0.01
413 K, 432.1 kPa, x2 = 0.495 | 0.111 ± 0.01
413.01 K, 535.2 kPa, x2 = 0.25 | 0.069 ± 0.01
413.04 K, 995.8 kPa, x2 = 0.746 | 0.069 ± 0.01
413.06 K, 607.4 kPa, x2 = 0.75 | 0.114 ± 0.01
413.1 K, 731 kPa, x2 = 0.5 | 0.066 ± 0.01
413.13 K, 269.4 kPa, x2 = 0.254 | 0.137 ± 0.01
